This is an account of results in patent publication US20250250537A1, “IN VITRO INSECT FAT CULTIVATION FOR CELLULAR AGRICULTURE APPLICATIONS” (Trustees of Tufts College, priority 2022, published 2025).

Molecules are shown by their SMILES.

The test system of one series is Ms PCs. Nature of the series: Lipid accumulation screen in Ms PCs (BODIPY and Oil Red O staining, Oil Red O dye elution). Format: cell-based, M. sexta. Conditions: 1 mM, 7 days in culture. The method, then:
To screen for lipid accumulation in Ms PCs, cells were seeded at 100,000 cells/cm^2 in 48-well plates. After 24 hours in culture, media was refreshed with growth media supplemented with variable concentrations (0, 0.01, 0.1, 1 mM) of water-soluble oleic acid (01257, Sigma-Aldrich) or Intralipid (I141, Sigma-Aldrich). After seven days in culture, cells were stained with BODIPY ([…], Fisher Scientific) at a 1:2,000 dilution and NucBlue (R37605, Fisher Scientific) or fixed and stained with Oil Red O (O0625, Sigma-Aldrich). Cells were imaged on a fluorescence microscope (BZ-X800, Keyence). To quantify lipid accumulation, Oil Red O dye from each condition was eluted with isopropanol and absorbance (500 nm) was measured on a microplate reader. To investigate lipid accumulation over time, cells were treated with 0.1 mM of Intralipid and stained with BODIPY and NucBlue on days 1, 4, 7 and 14.

The test system of another series is S2 cells. Conditions: 1 mM over 24 hours; cited from earlier work.

Take `CCCCCCCC/C=C\CCCCCCCC(=O)O` [oleic acid]: in the series with Ms PCs, the “lipid droplet formation (BODIPY and Oil Red O staining)” value was “visible”; the “morphology, growth and viability of treated cells” value was “unhealthy morphology, minimal growth, and were assumed to be nonviable”. Moreover, in the series with S2 cells, the “increase in triacylglycerol content” value was 5 fold.
